# Results taken from a melting point compilation (Tetko et al.; mined from patent text by program, amines drawn as free bases though some values may be those of a salt).
row,Structure (SMILES),melting point [°C]
1,CCCn1cc(Cc2ccc(C(=O)O)cc2OC)c2cc(C=CCC(=O)N(C)C)ccc21,124 to 126
2,CC(C)(C)C(=O)OCn1cnc2ccc(CBr)cc2c1=O,104 to 114
3,CC(C(=O)OCN1C(=O)CCC(N2C(=O)c3ccccc3C2=O)C1=O)N(C)C(=O)OC(C)(C)C (stereo unspecified),123 to 125
4,COc1ccc(-c2cnc(C(N)=O)nc2)cc1OC1CCCC1,235 to 238
5,FC(F)(F)c1csc(Nc2cc3ccccc3cn2)n1,200 to 203
6,Nc1nc2ccccc2c2c1ncn2CCOCC#Cc1nccs1,157 to 159
7,CCCCc1nc(Cl)c(CC(=O)O)n1Cc1ccc(NC(=O)c2ccccc2C(=O)O)cc1,170 to 175
8,N#CC1=NC(Cl)(Cl)N=C1Cl,114 to 115
9,CC1=CC(=O)CC(c2cccc(Cl)c2)N1C (stereo unspecified),82
10,O=c1c(Cc2ccncc2)c(-c2ccc(Br)cc2)[nH]c2ccccc12,232 to 234
11,COC(=O)c1nc(N=C=S)ccc1Oc1nc(OC)cc(OC)n1,116 to 117
12,Fc1ccccc1-c1c(OCc2ncnn2CC(F)F)nn2c(-c3ccccc3F)nncc12,179 to 180
13,CC(=O)c1ccccc1OC1SCC(O)C(O)C1O (stereo unspecified),102 to 105
14,Fc1ccc2[nH]c3c(c2c1)Cc1ccccc1-3,225 to 227
15,CC(=O)Nc1cccc(-c2nn3cnnc3cc2C)c1,298 to 301
16,CCn1c(C)c(C2(c3c(-c4ccccc4)c(-c4ccccc4)c4ccccn34)OC(=O)c3cccnc32)c2ccccc21 (stereo unspecified),206 to 208
17,CCOC(=O)c1cn(N)c2c(F)c(F)c(F)cc2c1=O,217
18,CCOC(=O)c1cn2c3c(c(F)c(F)cc3c1=O)OCC2CO (stereo unspecified),268 to 270
19,COc1cc(-c2cc3ccccc3[nH]2)ccc1OS(=O)(=O)c1ccccc1,156
20,O=C(C=Cc1ccccc1)Nc1ccc(S(=O)(=O)O)cc1,235 to 237
21,CCCOCc1nc(C(C)(C)O)c(C(=O)O)n1Cc1ccc(-c2ccccc2-c2nnn[nH]2)cc1,166 to 168
22,O=C(Nc1ccccc1)OCCc1ccc2c(c1)C(=O)c1ccccc1CO2,98 to 99
23,N#Cc1ccc(N2CCN(Cc3cnc4c(c3)NC(=O)[C@@H]3CCCN43)CC2)c(F)c1,226
24,CC(Oc1cccc(-c2ccc(Cl)c(C(=O)NCC34CC5CC(CC(C5)C3)C4)c2)c1)C(=O)O (stereo unspecified),115 to 120

row,Structure (SMILES),melting point [°C]
1,C=CCOc1ccc2c(C)cc(=O)oc2c1C(=O)C=Cc1cccnc1,124 to 126
2,COC(=O)c1cc(Br)c(OC)cc1O,122 to 124
3,O=C(O)c1cn(-c2cccc(Br)c2)cn1,205 to 207
4,CNC(=O)C1(Nc2nc(Nc3cc4c(cc3OC)CCN(CC(=O)N(C)C)CC4)ncc2Cl)CCCC1,75 to 87
5,N[C@@H]1C(=O)Nc2ccccc2-c2ccccc21,> 225
6,CC(=O)NCc1ccc(CN2CCN(c3ccccc3)CC2)cc1[N+](=O)[O-],135 to 136
7,Oc1csc(Cc2n[nH]c3ccccc23)c1,189 to 190
8,Cn1cccc(Cc2cc3cccc(-c4cccc(C(=O)NCCO)c4)c3s2)c1=O,173 to 174
9,C[C@H]1C(S(=O)(=O)c2ccccc2)C=C(Sc2ccccc2)CC[C@H]1O[Si](C)(C)C (stereo partly specified),114 to 116
10,CCN(C)C(=O)c1cnn(-c2ccc(Cl)cc2)c1-c1ccc(OC)c(OC)c1,110
11,CC(C)CCC(=O)NC(C)(Cc1c[nH]c2ccccc12)C(=O)NC(Cc1ccccc1)C(N)=O (racemic),170 to 171
12,COC(=O)C1=C(C)NC(C)=C(c2nc(CCl)ns2)C1c1cccc([N+](=O)[O-])c1 (stereo unspecified),205 to 206
13,CC[C@H]1CN(c2c(F)cc3c(=O)c(C(=O)O)cn4c3c2OC[C@@H]4C)C[C@H]1NC,211 to 213
14,CCCNC(=S)NCCCn1c(CCOC)nc2c(N)nc3ccccc3c21,172 to 173
15,O=C(NCc1ccccn1)Nc1cc(N2C(=O)COc3ccccc32)ccn1,206 to 207
16,O=C(O)c1ccc2c(c1)CCC(CCN1CCC(c3ccccc3)CC1)C2=O (stereo unspecified),118 to 120
17,Cc1cc(OC(F)F)nc(S(C)(=O)=O)n1,86 to 88
18,CCCCCCCCCCCCCCCCCCSC(=O)Nc1ccccc1,85.5 to 86.5
19,CC1(CCl)C(C(=O)OCC(Cl)(Cl)Cl)N2C(=O)C(NC(=O)Cc3ccccc3)C2S1=O (stereo unspecified),130 to 131
20,O=C1CCCN1C(=O)NCCS(=O)c1ccccn1 (stereo unspecified),120
21,CC(=O)OC(CCC(C)(C)C)C(C)C1CCC2C3CC=C4CC(O)CCC4(C)C3CCC12C (stereo unspecified),210 to 212
22,O=C(O)c1ccc(-c2ccc(Cl)cc2)nc1,> 260
23,CN1CCN(c2cc(NC(=O)OC(C)(C)C)c(N)cc2C#Cc2ccccc2)CC1,81 to 85
24,O=c1ccc(Oc2ccc([N+](=O)[O-])cc2)c[nH]1,214 to 217

row,Structure (SMILES),melting point [°C]
1,CNC(=O)NC1CCCCC1,135 to 136
2,Nc1c(F)c(N2CC[C@@H](C3(NCCO)CC3)C2)c(F)c2c1c(=O)c(C(=O)O)cn2[C@@H]1C[C@@H]1F,198 to 200
3,CCCN(C(=O)Oc1ccccc1)C1Cc2ccc(-c3ccc(=O)[nH]n3)cc2C1 (stereo unspecified),140 to 141
4,Cc1c(NC(=O)c2c(C(=O)N3CCC3)cnn2C)ccn2nc(-c3ccccc3)nc12,243 to 245
5,O=C(CS)N1CCSC1COc1ccccc1O (stereo unspecified),92 to 93
6,Cc1ccc(-c2nc(Cl)cc(Cl)n2)cc1,84 to 85
7,CCNc1nc(-c2ccc(NC(=O)NCc3cccnc3)cc2)ccc1C(=O)NCCN1CCCCC1,164 to 165
8,CS(=O)(=O)c1cccnc1Oc1ccc(Cl)c(Cl)c1,95 to 96
9,COc1ccc(-c2cc3cc(OC)cc(C=NO)c3o2)cc1,185 to 187
10,COc1ccc(C2(O)CCS(=O)(=O)CC2)cc1OC1CCCC1,147 to 149
11,N#Cc1ccc(N2CCN(Cc3cnc4c(c3)NC(=O)[C@@H]3CCCN43)CC2)cc1F,251 to 255
12,Cc1ccc(S(=O)(=O)n2ccc3c(Cl)c(F)cnc32)cc1,125
13,Cc1cc(C)c(CN2CCN(C)CC2)c(C)c1C=O,90
14,CCOc1ccc(-c2nn(C(C)c3oc4ccccc4c(=O)c3-c3cccc(F)c3)c3ncnc(N)c23)cc1 (stereo unspecified),229 to 232
15,O=C1NC(=O)C2(c3ccc4ccc(Cl)nc4n3)C=CC=CC12 (stereo unspecified),268
16,CCOC(=O)c1ccc(NC(=O)C=C(c2ccc(Br)cc2)c2ccc(Br)cc2)cc1,207 to 208
17,CCOC(=O)CCC(C)C1CCC2C3C(O)C(CC)C4CC(O)CCC4(C)C3CCC12C (stereo unspecified),55 to 57
18,Cc1c(CN2CCc3c(c4cccc(F)c4n3C)C2=O)ncn1C(=O)OCc1ccccc1,126 to 128
19,CC(C)(O)C(O)(C(F)(F)F)C(F)(F)F,48
20,COc1ccc(N2CCN(c3c(C)c(C)c4c(c3C)C(c3ccc(-c5ccccc5)cc3)C(C)(C)O4)CC2)cc1 (stereo unspecified),147 to 148
21,COc1ccc2ccccc2c1CCN,> 180
22,CC(=O)Nc1ccc(S(=O)(=O)Nc2ccn(CC3CC3)c(=O)n2)cc1,222 to 224
23,Cc1cc(C(=O)O)c(N)cc1Cl,212 to 215
